Test results as given in US20150284430A1, “APPLICATION OF SP PEPTIDE OR DERIVATIVE THEREOF IN PREPARING MEDICINES FOR PREVENTING OR TREATING ASTHMA” (priority 2012, published 2015).

Test system: allergic asthma mouse model induced by a combination of ovalbumin and adjuvant
Assay: Lung tissue histopathologic examination and lesion score, ovalbumin/aluminium hydroxide allergic asthma mouse model
Type: in vivo
Settings: positive medicines group, dexamethasone 0.9 μg/kg·d i.p. every other day x15 from week 15
Protocol: Preparation of sensitized liquid: prepare in a proportion of dissolving 10 ug ovalbumin and 2 mg aluminium hydroxide in 0.5 ml physiological saline, and use it right after being prepared.
On day 1, day 7 and day 14, the mice of all groups (the model group, the preventive administration groups, the treatment administration groups, and the positive medicines group) apart from the blank control group are injected intraperitoneally with 0.5 ml freshly prepared sensitized liquid. The blank control group is injected intraperitoneally with an equal volume of physiological saline.
Since day 21 (i.e., starting from week 4), the mice of all groups apart from the blank control group are placed in a 16 L closed container every fourth days, make the mice inhale 1 wt % ovalbumin physiological saline by ultrasonic nebulization, with an inhalation duration of 25 min/d and a nebulization flow rate of 3 ml/min, for twice a week to induce asthma, and the process continues until week 19. […]
Lung tissue lesions (including bronchia and perivascular interstitial edema, alveolar wall congestion or emphysema) are marked respectively as 1, 2, 3 and 4 in ascending order of severity, 0 stands for no obvious lesions, and 0.5 for extreme mild lesions. All scores are accumulated, and a mean score (±SD) of each mouse in each group is calculated, and a higher score indicates a more severe level of lesions. […]

For `C[C@@H]1C[C@H]2[C@@H]3CCC4=CC(=O)C=C[C@]4(C)[C@@]3(F)[C@@H](O)C[C@]2(C)[C@@]1(O)C(=O)CO` [positive drug, dexamethasone], the “inflammatory cells infiltration (histopathology, FIG. 6)” value was “infiltration with a few inflammatory cells” and the “pulmonary interstitial edema (histopathology, FIG. 6)” value was “mild pulmonary interstitial edema”.
